In patent US20030013660A1, “Dioxolane analogs for improved inter-cellular delivery” (Shire BioChem Inc., priority 2000, published 2003):

Assays:
CEM/ARAC8C cells [1] = test: Cellular uptake assay of [3H]nucleoside in nucleoside-transport deficient CEM/ARAC8C cells; assay type: in vitro ADME
Experimental: FIG. 1 Comparative uptake of 30 μM [^3H]-troxacitabine in CEM (Panel A) and CEM/ARAC8C (Panel B) cells. [^3H]-Uridine uptake in either the presence or absence of the hENT1 inhibitor, NBMPR or 5 mM non-radioactive uridine was included for comparison as a control substrate.

hCNT2 = target: T1, hCNT2 (Homo sapiens, UniProt O43868); test: Uptake by recombinant transporter in transiently transfected HeLa cells; assay type: in vitro ADME; conditions: 10 μM, 100 μM dilazep
T1 construct: expressed in transfected cells; host or cells: HeLa cells, transient transfection with pcDNA3-hCNT2
T1 sequence (O43868 1-658): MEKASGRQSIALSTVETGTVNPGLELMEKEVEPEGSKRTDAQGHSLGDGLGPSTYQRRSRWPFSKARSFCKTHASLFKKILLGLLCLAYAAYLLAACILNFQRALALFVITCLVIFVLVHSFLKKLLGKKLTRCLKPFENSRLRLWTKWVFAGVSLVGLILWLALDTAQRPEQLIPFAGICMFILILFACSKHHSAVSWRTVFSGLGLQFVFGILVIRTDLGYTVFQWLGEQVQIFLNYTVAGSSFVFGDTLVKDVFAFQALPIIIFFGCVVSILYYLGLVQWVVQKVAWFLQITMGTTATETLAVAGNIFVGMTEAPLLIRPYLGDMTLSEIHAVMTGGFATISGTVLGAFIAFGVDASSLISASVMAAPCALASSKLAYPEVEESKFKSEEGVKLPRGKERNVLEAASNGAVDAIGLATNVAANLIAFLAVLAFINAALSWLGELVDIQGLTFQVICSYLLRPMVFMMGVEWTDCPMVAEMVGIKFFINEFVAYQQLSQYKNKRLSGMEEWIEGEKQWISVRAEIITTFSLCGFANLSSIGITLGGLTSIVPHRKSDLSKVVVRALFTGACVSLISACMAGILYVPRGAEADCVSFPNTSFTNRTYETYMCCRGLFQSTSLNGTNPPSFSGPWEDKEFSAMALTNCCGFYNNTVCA
Experimental: (§1) Transport assays were conducted in the presence of the equilibrative transport inhibitor, 100 μM dilazep and either in the presence ( ? ) or absence (▴) of […].sodium, and compared to HeLa cells transiently transfected with the empty vector control plasmic (▾).
(§2) Cancer Res., 56: 4187-4191.
(§3) Expression plasmids encoding recombinant hCNT1 and hCNT2 are prepared using conventional methods. […] The expression vectors are separately introduced into actively proliferating HeLa cells, following conventional methods. See, e.g., Fang et al (1996).
(§4) Recombinant hCNT1 and hCNT2 were separately introduced into HeLa cells by transient transfection of pcDNA3 plasmids containing the coding sequences of the relevant nucleoside transporter protein. […] Uptake of 10 μM [^3H]troxacitabine was not mediated either by hCNT1 or by hCNT2. Troxacitabine uptake by cib-activity (hCNT3) in differentiated HL-60 cells: […]

hCNT1 = target: T2, hCNT1 (Homo sapiens, UniProt O00337); test: as above; assay type: in vitro ADME; conditions: 10 μM, 100 μM dilazep
T2 construct: expressed in transfected cells; host or cells: HeLa cells, transient transfection with pcDNA3-hCNT1
T2 sequence (O00337 1-649): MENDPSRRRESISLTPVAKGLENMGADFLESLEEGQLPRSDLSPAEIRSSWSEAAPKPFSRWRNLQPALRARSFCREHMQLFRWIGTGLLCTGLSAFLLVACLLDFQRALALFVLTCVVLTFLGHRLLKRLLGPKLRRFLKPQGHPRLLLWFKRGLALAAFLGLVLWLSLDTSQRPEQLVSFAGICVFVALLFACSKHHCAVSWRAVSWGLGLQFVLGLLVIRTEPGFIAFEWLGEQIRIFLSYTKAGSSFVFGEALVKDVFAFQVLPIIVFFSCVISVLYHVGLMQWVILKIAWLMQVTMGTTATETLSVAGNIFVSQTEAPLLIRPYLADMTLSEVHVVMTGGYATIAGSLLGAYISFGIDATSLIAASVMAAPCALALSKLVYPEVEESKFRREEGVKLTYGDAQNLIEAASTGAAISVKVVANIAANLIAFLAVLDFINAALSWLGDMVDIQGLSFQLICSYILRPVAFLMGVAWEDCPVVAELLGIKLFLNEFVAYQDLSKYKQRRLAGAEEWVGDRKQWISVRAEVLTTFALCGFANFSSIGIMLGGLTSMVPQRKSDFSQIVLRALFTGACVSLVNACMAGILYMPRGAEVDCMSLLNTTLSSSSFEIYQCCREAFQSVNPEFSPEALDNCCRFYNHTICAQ
Experimental: as §1, §2, §3, §4

CEM/ARAC8C cells [2] = test: CellTiter 96 cell proliferation assay (chemosensitivity), 48 h; assay type: cell-based; conditions: read-out: EC50 (50% of the dose response curve); CEM/ARAC8C cells, 48 h exposure
Experimental: (§5) The chemosensitivity of suspension cells lines (e.g., CEM or CEM-derivatives) is assessed using the CellTiter 96 ? proliferation assay. […] Adherent cell lines (e.g., DU145 or DU145^R) are seeded (^˜10^5 cells) in triplicate dishes, 24 h before drug exposure. Growth inhibition is determined by trypsinization and counting cells electronically.

CEM cells = test: as above; assay type: cell-based
Experimental: as §5

CEM/dCK cells = test: as above; assay type: cell-based; conditions: read-out: EC50 (50% of the dose response curve), 48 h exposure
Experimental: as §5

- uptake of [3H]nucleoside over the 6-min time course (CEM/ARAC8C cells [1]): taken up to a lesser degree
- uptake mediated by hCNT2 (hCNT2): not mediated
- uptake mediated by hCNT1 (hCNT1): not mediated
Compound: Nc1ccn([C@@H]2CO[C@H](CO)O2)c(=O)n1 [Troxacitabine, troxacitabine]
- EC50 (CEM/ARAC8C cells [2]): 1180 nM
- EC50 (CEM cells; Homo sapiens, CCRF-CEM, read-out: EC50 (50% of the dose response curve), CEM cells, 48 h exposure): 160 nM
- effect of the es transport inhibitor NBMPR on resistance of CEM cells (CEM cells; presence of NBMPR): not
- EC50 (CEM/dCK cells): > 100000 nM
